In patent US12162867B2, “Inhibitors of RNA helicase DHX9 and uses thereof” (ACCENT THERAPEUTICS, INC., priority 2022, dated 2024):

test system: circBRIP1 in HCT116 cells; assay: DHX9 circBRIP1 cellular target engagement SYBR Green assay (qPCR); format: cell-based; settings: Homo sapiens, HCT-116, circBRIP1, HCT116 cells; SyBr assay (marked ^+); read-out: DHX9 Cellular Target Engagement EC50

SMILES	EC50 [nM]
CS(=O)(=O)Nc1cc(Br)cc(NC(=O)c2cnn(-c3ccccc3C(O)C(F)(F)F)c2)c1 (centres unmarked) [Example 103, N-(3-bromo-5-(methylsulfonamido)phenyl)-1-(2-(2,2,2-trifluoro-1-hydroxyethyl)phenyl)-1H-pyrazole-4-carboxamide]	5310
Cn1cc(C(=O)Nc2cc(Cl)cc(NS(C)(=O)=O)c2)cc1N1CCCCC1=O [Example 158, N-(3-chloro-5-(methylsulfonamido)phenyl)-1-methyl-5-(2-oxopiperidin-1-yl)-1H-pyrrole-3-carboxamide]	1290
CC(=O)N1CCC(n2cc(C(=O)Nc3cc(Cl)cc(NS(C)(=O)=O)c3)cn2)CC1 [Example 317]	> 10000
CS(=O)(=O)Nc1cc(Cl)cc(NC(=O)c2cnn(-c3ncccc3OCc3cnco3)c2)c1 [Example 66]	4870
CP(C)(=O)c1cccnc1-n1cc(C(=O)Nc2cc(Cl)cc(NS(C)(=O)=O)c2)cn1 [Example 201]	> 10000
Cc1cccc(C#N)c1-n1cc(C(=O)Nc2cc(Br)cc(NS(C)(=O)=O)c2)cn1 [Example 44]	4190
CN1CC2(CC(n3cc(C(=O)Nc4cc(Cl)cc(NS(C)(=O)=O)c4)cn3)C2)C1 [Example 311]	3980
Cc1cc(C(=O)Nc2cc(Cl)cc(NS(C)(=O)=O)c2)cn1-c1ccc(N2CCS(=O)(=O)CC2)cn1 [Example 285]	503
CN1CCN(c2ccc(-n3cc(C(=O)Nc4cc(Br)cc(NS(C)(=O)=O)c4)cn3)nc2)CC1=O [Example 88]	> 10000
CCn1cc(C(=O)Nc2cc(Cl)cc(NS(C)(=O)=O)c2)cc1-c1ccc(N2CCOCC2)cn1 [Example 274]	97.9
CN1CCN(c2cnc(-n3cc(C(=O)Nc4cc(Cl)cc(NS(C)(=O)=O)c4)cn3)c(OCc3cccnc3)c2)CC1=O [Example 193]	> 10000
CCS(=O)(=O)Nc1cc(Cl)cc(NC(=O)c2cc(-c3ncccn3)n(C)c2)c1 [Example 173, N-(3-chloro-5-(ethylsulfonamido)phenyl)-1-methyl-5-(pyrimidin-2-yl)-1H-pyrrole-3-carboxamide]	118
CN(C)C(=O)N1CCN(c2ccc(-n3cc(C(=O)Nc4cc(Cl)cc(NS(C)(=O)=O)c4)cn3)nc2)CC1 [Example 89]	667
CS(=O)(=O)Nc1cc(Cl)cc(NC(=O)c2cnn(-c3ncccc3OCc3ccn[nH]3)c2)c1 [Example 253]	9230
CS(=O)(=O)Nc1cc(Cl)cc(NC(=O)c2cc(C(F)(F)F)n(-c3ccc(N4CCOCC4)cn3)c2)c1 [Example 271]	761
CS(=O)(=O)Nc1cc(Cl)cc(NC(=O)c2cnn(C3CCOCC3)c2)c1 [Example 131, N-(3-chloro-5-(methylsulfonamido)phenyl)-1-(tetrahydro-2H-pyran-4-yl)-1H-pyrazole-4-carboxamide]	> 10000
CS(=O)(=O)Nc1cc(Cl)cc(NC(=O)c2cc(N3CCN(CC(F)(F)F)CC3)cs2)c1 [Example 246]	3930
CS(=O)(=O)Nc1cc(Cl)cc(NC(=O)c2cnn(C3CC4(C3)CN(CC(F)(F)F)C4)c2)c1 [Example 312]	9970
CC(C)(O)COc1cccnc1-n1cc(C(=O)Nc2cc(Cl)cc(NS(C)(=O)=O)c2)cn1 [Example 195]	751
CS(=O)(=O)Nc1cc(Cl)cc(NC(=O)c2cnn(-c3cc(N4CCOCC4)ccn3)c2)c1 [Example 91]	382
CS(=O)(=O)Nc1cc(Cl)cc(NC(=O)c2cnn([C@@H]3CCCC[C@@H]3O)c2)c1 (relative stereo) [Example 153, N-(3-chloro-5-(methylsulfonamido)phenyl)-1-(2-cis-hydroxycyclohexyl)-1H-pyrazole-4-carboxamide]	6110
CS(=O)(=O)Nc1cc(Cl)cc(NC(=O)c2cnn(CCCO)c2)c1 [Example 126, N-(3-chloro-5-(methylsulfonamido)phenyl)-1-(3-hydroxypropyl)-1H-pyrazole-4-carboxamide]	> 10000
CN1CCN(c2cnc(-n3cc(C(=O)Nc4cc(Cl)cc(NS(C)(=O)=O)c4)cn3)nc2)CC1=O [Example 183]	> 10000
CS(=O)(=O)Nc1cc(Br)cc(NC(=O)c2cnn(-c3ccc(C#N)cn3)c2)c1 [Example 41]	4340
CC(=O)N1CCN(c2cnc(-n3cc(C(=O)Nc4cc(Br)cc(NS(C)(=O)=O)c4)cn3)c(C)c2)CC1 [Example 87]	2460
CS(=O)(=O)Nc1cc(Cl)cc(NC(=O)c2cnn([C@H]3CCC[C@H](O)C3)c2)c1 (single isomer, unassigned) [Example 152a]	> 10000

The next lines start with the values.

EC50 [nM]	SMILES
3540	COc1ccc2cc(C(=O)Nc3cc(Cl)cc(NS(C)(=O)=O)c3)sc2c1 [Example 327]
30000	CS(=O)(=O)Nc1cc(Cl)cc(NC(=O)c2nc(-c3ccccc3)c[nH]2)c1 [Example 9]
121	CN(C)C(=O)Cc1cccnc1-c1csc(C(=O)Nc2cc(Cl)cc(NS(C)(=O)=O)c2)c1 [Example 221]
414	CS(=O)(=O)Nc1cc(Cl)cc(NC(=O)c2cc(-c3ccccc3O)cs2)c1 [Example 106]
2610	CS(=O)(=O)Nc1cc(Cl)cc(NC(=O)c2cnn(-c3ccccc3-c3cncc(F)c3)c2)c1 [Example 257]
437	Cn1cc(C(=O)Nc2cc(Cl)cc(NS(C)(=O)=O)c2)cc1-c1ccccc1 [Example 109]
2410	CS(=O)(=O)Nc1cc(Cl)cc(NC(=O)c2cc3c(=O)[nH]ccn3c2)c1 [Example 301]
> 10000	Cn1nc(C(=O)Nc2cc(Cl)cc(NS(C)(=O)=O)c2)cc1-c1ccccc1OCc1ccccc1 [Example 138, 5-(2-(benzyloxy)phenyl)-N-(3-chloro-5-(methylsulfonamido)phenyl)-1-methyl-1H-pyrazole-3-carboxamide]
5140	CS(=O)(=O)Nc1cc(Cl)cc(NC(=O)c2csc(-c3ccccc3)c2)c1 [Example 124, N-(3-chloro-5-(methylsulfonamido)phenyl)-5-phenylthiophene-3-carboxamide]
4870	CS(=O)(=O)Nc1cc(Cl)cc(NC(=O)c2cc3cnccn3c2)c1 [Example 330]
3870	CS(=O)(=O)Nc1cc(Cl)cc(NC(=O)c2cccc(-n3cccn3)c2)c1 [Example 117]
3510	CS(=O)(=O)Nc1cc(I)cc(NC(=O)c2cc(-c3ccccc3)cs2)c1 [Example 16]
> 10000	CS(=O)(=O)Nc1cc(Cl)cc(NC(=O)c2cnn(-c3ccccc3Oc3ncccn3)c2)c1 [Example 263]
16100	CS(=O)(=O)Nc1cc(Cl)cc(NC(=O)c2coc(-c3ccccc3)c2)c1 [Example 125]
> 10000	Cc1cncc2cc(C(=O)Nc3cc(Cl)cc(NS(C)(=O)=O)c3)sc12 [Example 290]
851	Cc1sc(C(=O)Nc2cc(Cl)cc(NS(C)(=O)=O)c2)cc1-c1ccccc1 [Example 11]
153	CCS(=O)(=O)Nc1cc(Cl)cc(NC(=O)c2cc(-c3ncc(F)cn3)c(C)s2)c1 [Example 344]
5430	CS(=N)(=O)Nc1cc(Br)cc(NC(=O)c2cc(-c3ccccn3)cs2)c1 (centres unmarked) [Example 121, N-(3-bromo-5-(methylsulfonoamidimidamido)phenyl)-4-(pyridin-2-yl)thiophene-2-carboxamide]
228	Cc1sc(C(=O)Nc2cc(Cl)cc(NS(C)(=O)=O)c2)cc1-c1c(F)cccc1OCc1ccccc1 [Example 240]
1480	CS(=O)(=O)Nc1cc(F)cc(NC(=O)c2cc(-c3ccccc3O)cs2)c1 [Example 114]
5900	CS(=O)(=O)Nc1cc(Cl)cc(NC(=O)c2cc3c(F)c(F)ccc3s2)c1 [Example 324]
278	CS(=O)(=O)Nc1cc(Cl)cc(NC(=O)c2cnn(-c3ncccc3OCc3ccccc3)c2)c1 [Example 68]

same assay, conditions: Homo sapiens, HCT-116, circBRIP1, HCT116 cells; ^+ SyBr assay was used; read-out: DHX9 Cellular Target Engagement EC50

SMILES	EC50 [nM]
Cc1cc(C(=O)Nc2cc(Cl)cc(NS(C)(=O)=O)c2)cn1-c1ncc(S(C)(=O)=O)cn1 [Example 656]	239
CN1CCN(c2csc(C(=O)Nc3cc(Cl)cc(NS(C)(=O)=O)c3)c2)CC1=O [Example 661]	> 10000
Cc1cc(C(=O)Nc2cc(Cl)cc(NS(C)(=O)=O)c2)cn1-c1ncc(C(F)(F)F)cn1 [Example 426]	226
CS(=O)(=O)Nc1cc(Cl)cc(NC(=O)c2cnn(-c3ncc(N4CCOCC4)cn3)c2)c1 [Example 394]	4230
CS(=O)(=O)Nc1cc(Cl)cc(NC(=O)c2cnn(-c3ncccc3Oc3cccnc3)c2)c1 [Example 676]	806

Now from value to compound:

EC50 [nM]	SMILES
859	CC(C)(O)c1cc(C(=O)Nc2cc(Cl)cc(NS(C)(=O)=O)c2)cn1-c1ccccn1 [Example 650]
2320	Cc1sc(C(=O)Nc2cc(Cl)cc(NS(C)(=O)=O)c2)cc1N1CCCC1=O [Example 434]
193	Cc1cc(C(=O)Nc2cc(Cl)cc(NS(C)(=O)=O)c2)cn1-c1ccc(C#N)cn1 [Example 425]
126	Cc1sc(C(=O)Nc2cc(Cl)cc(NS(C)(=O)=O)c2)cc1-c1ncc(F)cc1-c1cncc(F)c1 [Example 607]
2730	CS(=O)(=O)Nc1cc(Cl)cc(NC(=O)c2cc(-c3ncc(F)cn3)c(C3CC3)s2)c1 [Example 448]
2490	Cc1sc(C(=O)Nc2cc(Cl)cc(NS(C)(=O)=O)c2)cc1-c1nccn1CCc1ccccc1 [Example 698]
224	Cn1cc(C(=O)Nc2cc(Cl)cc(NS(C)(=O)=O)c2)cc1-c1ccc(C#N)cn1 [Example 570]
1410	CS(=O)(=O)Nc1cc(Cl)cc(NC(=O)c2cc(N3CCOC3=O)cs2)c1 [Example 433]
4110	CS(=O)(=O)Nc1cc(Cl)cc(NC(=O)c2cnn(C3CCCC3OCc3ccccc3)c2)c1 (centres unmarked) [Example 424]
447	CN1CCN(c2csc(C(=O)Nc3cc(Cl)cc(NS(C)(=O)=O)c3)c2)C1=O [Example 431]

same assay, conditions: Homo sapiens, HCT-116, read-out: DHX9 Cellular Target Engagement EC50

SMILES	EC50 [nM]
CS(=O)(=O)Nc1cc(Cl)cc(NC(=O)c2cnn(-c3ncccc3NCc3ccccc3)c2)c1 [Example 168, 1-(3-(benzylamino)pyridin-2-yl)-N-(3-chloro-5-(methylsulfonamido)phenyl)-1H-pyrazole-4-carboxamide]	2130

same assay, conditions: circBRIP1, HCT116 cells; SyBr assay (marked ^+); read-out: DHX9 Cellular Target Engagement EC50

EC50 [nM]	SMILES
61	CCc1sc(C(=O)Nc2cc(Cl)cc(NS(C)(=O)=O)c2)cc1-c1ccccn1 [Example 232]
